From ChEMBL document CHEMBL4229359, “Simple 2(5H)-furanone derivatives with selective cytotoxicity towards non-small cell lung cancer cell line A549 - Synthesis, structure-activity relationship and biological evaluation” (Eur J Med Chem, 2018)
Calls of active or inactive are those of the source. No cut-off for these calls is given here.

How the values were obtained:
[1] = system: LoVo; assay: Cytotoxicity against human LoVo cells assessed as reduction in cell viability after 72 hrs by MTT assay; assay type: functional, cell-based
[2] = system: A549; assay: Cell cycle arrest in human A549 cells assessed as accumulation at S-phase at 10 uM after 72 hrs by propidium iodide staining based flow cytometry (reference value: 16.8 to 18.5%); assay type: functional
[3] = system: A549; assay: Anticlonogenic activity against human A549 cells assessed as colony formation at 10 uM after 72 hrs by crystal violet staining based microscopic method relative to control; assay type: functional
[4] = system: HT-29; assay: Cytotoxicity against human HT-29 cells assessed as reduction in cell viability after 72 hrs by MTT assay; assay type: functional, cell-based; details: HT-29, 72 h
[5] = system: HepG2; assay: Cytotoxicity against human HepG2 cells assessed as reduction in cell viability after 72 hrs by MTT assay; assay type: functional, cell-based; details: HepG2, 72 h
[6] = system: DU-145; assay: Cytotoxicity against human DU145 cells assessed as reduction in cell viability after 72 hrs by MTT assay; assay type: functional, cell-based; details: DU-145, 72 h
[7] = system: A549; assay: Synergistic anticlonogenic activity against human A549 cells at 10 uM after 72 hrs in presence of 10 uM erlotinib by crystal violet staining based microscopic method; assay type: functional
[8] = system: A549; assay: Cell cycle arrest in human A549 cells assessed as accumulation at G1-phase at 10 uM after 72 hrs by propidium iodide staining based flow cytometry (reference value: 75.2 to 76%); assay type: functional
[9] = system: A549; assay: Anticlonogenic activity against human A549 cells at 10 uM after 72 hrs by crystal violet staining based microscopic method relative to control; assay type: functional
[10] = system: A549; assay: Cell cycle arrest in human A549 cells assessed as accumulation at G2/M-phase at 10 uM after 24 hrs by propidium iodide staining based flow cytometry (reference value: 6.5%); assay type: functional
[11] = system: A549; assay: Cell cycle arrest in human A549 cells assessed as accumulation at G1-phase at 20 uM after 72 hrs by propidium iodide staining based flow cytometry (reference value: 61.5%); assay type: functional
[12] = system: A549; assay: Induction of apoptosis in human A549 cells assessed as live cells at 20 uM after 72 hrs by Annexin V-FITC/propidium iodide staining based flow cytometry (reference value: 98.5%); assay type: functional
[13] = system: A549; assay: Synergistic cell cycle arrest in human A549 cells assessed as accumulation at G1-phase at 10 uM after 72 hrs in presence of 10 uM erlotinib by propidium iodide staining based flow cytometry (reference value: 76%); assay type: functional
[14] = system: A549; assay: Induction of apoptosis in human A549 cells assessed as necrotic cells at 20 uM after 72 hrs by Annexin V-FITC/propidium iodide staining based flow cytometry (reference value: 0.6%); assay type: functional
[15] = system: A549; assay: Effect on Pro-caspase-3 protein expression in human A549 cells at 20 uM after 72 hrs by densitometric analysis; assay type: functional, cell-based
[16] = system: A549; assay: Cell cycle arrest in human A549 cells assessed as accumulation at S-phase at 10 uM after 24 hrs by propidium iodide staining based flow cytometry (reference value: 34.1%); assay type: functional
[17] = system: A549; assay: Effect on Bax protein expression in human A549 cells at 20 uM after 72 hrs by densitometric analysis; assay type: functional, cell-based
[18] = system: A549; assay: Effect on Bcl-x protein expression in human A549 cells at 20 uM after 72 hrs by densitometric analysis; assay type: functional, cell-based
[19] = system: A549; assay: Induction of apoptosis in human A549 cells assessed as caspase-3 cleavage at 20 uM after 72 hrs by Western blot analysis; assay type: functional, cell-based
[20] = system: A549; assay: Induction of apoptosis in human A549 cells assessed as late apoptotic cells at 20 uM after 72 hrs by Annexin V-FITC/propidium iodide staining based flow cytometry (reference value: 0.5%); assay type: functional
[21] = system: A549; assay: Cell cycle arrest in human A549 cells assessed as accumulation at G2/M-phase at 10 uM after 72 hrs by propidium iodide staining based flow cytometry (reference value: 6.3 to 7.2%); assay type: functional
[22] = Selectivity index, ratio of IC50 for human BEAS2B cells to IC50 for human A549 cells; assay type: toxicity
[23] = system: A549; assay: Cell cycle arrest in human A549 cells assessed as accumulation at G1-phase at 10 uM after 24 hrs by propidium iodide staining based flow cytometry (reference value: 59.4%); assay type: functional
[24] = system: A549; assay: Synergistic cell cycle arrest in human A549 cells assessed as accumulation at G2/M-phase at 10 uM after 72 hrs in presence of 10 uM erlotinib by propidium iodide staining based flow cytometry (reference value: 7.2%); assay type: functional
[25] = system: A549; assay: Induction of apoptosis in human A549 cells at 20 uM after 72 hrs by Annexin V-FITC/propidium iodide staining based flow cytometry relative to control; assay type: functional
[26] = system: A549; assay: Anticlonogenic activity against human A549 cells assessed as colony formation at 5 uM after 72 hrs by crystal violet staining based microscopic method relative to control; assay type: functional
[27] = system: A549; assay: Synergistic cytotoxicity against human A549 cells assessed as reduction in cell viability at 10 uM after 72 hrs in presence of 5 to 20 uM erlotinib by MTT assay; assay type: functional, cell-based
[28] = system: A549; assay: Induction of apoptosis in human A549 cells assessed as early apoptotic cells at 20 uM after 72 hrs by Annexin V-FITC/propidium iodide staining based flow cytometry (reference value: 0.4%); assay type: functional
[29] = system: HCT-116; assay: Cytotoxicity against human HCT116 cells assessed as reduction in cell viability after 72 hrs by MTT assay; assay type: functional, cell-based; details: HCT-116, 72 h
[30] = system: A549; assay: Synergistic cell cycle arrest in human A549 cells assessed as accumulation at S-phase at 10 uM after 72 hrs in presence of 10 uM erlotinib by propidium iodide staining based flow cytometry (reference value: 16.8%); assay type: functional
[31] = system: A549; assay: Cytotoxicity against human A549 cells assessed as reduction in cell viability after 72 hrs by MTT assay; assay type: functional, cell-based; details: A549, 72 h
[32] = system: MCF7; assay: Cytotoxicity against human MCF7 cells assessed as reduction in cell viability after 72 hrs by MTT assay; assay type: functional, cell-based; details: MCF7, 72 h
[33] = system: A549; assay: Downregulation of Cyclin-B1 protein expression in human A549 cells at 10 uM after 72 hrs by Western blot analysis; assay type: functional, cell-based
[34] = system: A549; assay: Cell cycle arrest in human A549 cells assessed as accumulation at S-phase at 20 uM after 72 hrs by propidium iodide staining based flow cytometry (reference value: 31.9%); assay type: functional
[35] = system: BEAS-2B; assay: Cytotoxicity against human BEAS2B cells assessed as reduction in cell viability after 72 hrs by MTT assay; assay type: cell-based
[36] = system: A549; assay: Effect on Bcl2 protein expression in human A549 cells at 20 uM after 72 hrs by densitometric analysis; assay type: functional, cell-based
[37] = system: A549; assay: Induction of mitosis in human A549 cells at 10 uM after 24 hrs by DAPI staining based fluorescence microscopic method; assay type: functional, cell-based
[38] = system: A549; assay: Effect on Bad protein expression in human A549 cells at 20 uM after 72 hrs by densitometric analysis; assay type: functional, cell-based
[39] = system: A549; assay: Cell cycle arrest in human A549 cells assessed as accumulation at G2/M-phase at 20 uM after 72 hrs by propidium iodide staining based flow cytometry (reference value: 6.7%); assay type: functional
[40] = system: SJSA-1; assay: Cytotoxicity against human SJSA1 cells assessed as reduction in cell viability after 72 hrs by MTT assay; assay type: functional, cell-based; details: SJSA-1, 72 h
[41] = system: U2OS; assay: Cytotoxicity against human U2OS cells assessed as reduction in cell viability after 72 hrs by MTT assay; assay type: functional, cell-based
[42] = system: HCT-116; assay: Cytotoxicity against p53-/- human HCT116 cells assessed as reduction in cell viability after 72 hrs by MTT assay; assay type: functional, cell-based; details: HCT-116, 72 h
[43] = system: PC-3; assay: Cytotoxicity against human PC3 cells assessed as reduction in cell viability after 72 hrs by MTT assay; assay type: functional, cell-based; details: PC-3, 72 h
[44] = system: A549; assay: Effect on cleaved caspase-3 protein expression in human A549 cells at 20 uM after 72 hrs by densitometric analysis; assay type: functional, cell-based
[45] = system: Hep 3B2; assay: Cytotoxicity against human Hep3B cells assessed as reduction in cell viability after 72 hrs by MTT assay; assay type: functional, cell-based

SMILES: CC(C)OC1OC(=O)C(Cl)=C1Cl (stereo not given)
- IC50 [1]: 2.8 µM
- Activity [2]: 19.3 - 26.2%
- Activity [3]: 15%
- IC50 [4]: 7.2 µM
- IC50 [5]: 16.8 µM
- IC50 [6]: 25.4 µM
- Activity [7]: 89%
- Activity [8]: 59.9 - 68.2%
- Activity [9]: 86%
- Activity [10]: 23.4%
- Activity [11]: 48%
- Activity [12]: 63.9%
- Activity [13]: 51.4%
- Activity [14]: 3.9%
- Activity [15]: inactive
- Activity [16]: 36.6%
- Activity [17]: inactive
- Activity [18]: inactive
- Activity [19]: inactive
- Activity [20]: 25.7%
- Activity [21]: 12.5 - 13.9%
- log(RatioIC50) [22]: 0.61
- Activity [23]: 40%
- Activity [24]: 16.6%
- fold change (FC) [25]: 36
- Activity [26]: 40%
- Activity [27]: inactive
- Activity [28]: 6.5%
- IC50 [29]: 7.2 µM
- Activity [30]: 31.9%
- IC50 [31]: 6.7 µM
- IC50 [32]: 12.4 µM
- Activity [33]: Active
- Activity [34]: 47.3%
- IC50 [35]: 27.5 µM
- Activity [36]: inactive
- Activity [37]: inactive
- Activity [38]: inactive
- Activity [39]: 4.7%
- IC50 [40]: 7.7 µM
- IC50 [41]: 21.1 µM
- IC50 [42]: 6.8 µM
- IC50 [43]: 4.8 µM
- Activity [44]: inactive
- IC50 [45]: 19.8 µM
